Laboratory results: patent US6461844B1, “Liver GalNAc-1-phosphate kinase” (The Board of Trustees of the University of Arkansas, priority 1995, dated 2002)
“Also recorded” adds a separate entry of the source.

Key:
GalNAc kinase [1] = target: T1, GalNAc kinase (Sus scrofa, UniProt A0A287BB25); experiment: Phosphate donor specificity of GalNAc kinase; format: biochemical, pig; design: Radioactivity in Sugar-P: unit not given beside the values; settings: for Radioactivity in Sugar-P / Specific Activity: nucleotide added at 5 mM
T1 construct: This enzyme was purified about 1400-fold from the cytosolic fraction of pig kidney; from tissue; host or cells: pig kidney cytosol

GalNAc kinase [2] = target: T1, GalNAc kinase; experiment: Divalent cation requirement of GalNAc kinase; format: biochemical, pig; settings: for stimulation of the kinase: tested at a variety of concentrations; for maximum activity relative to optimum concentrations of Mg++: at optimum cation concentration
Protocol: FIG. 1 illustrates the effect of various divalent cations on the GalNAc kinase. Various amounts of Mg^++, Mn^++, or Co^++ were added to incubations prepared as indicated below. The amount of GalNAc phosphorylated in each incubation by the purified enzyme was determined as described in the assay conditions.
(§1) GalNAc kinase activity was assayed in incubation mixtures of 200 μl containing the following components: [^3H]GalNAc (10,000 cpm), 1 μmole of ATP, 2 μmoles of MgCl2, 20 μmoles of Tris-HCl buffer, pH 7.5, and various amounts of the enzyme preparations to be assayed. Following an incubation for the appropriate time, the reaction was stopped by heating at 100° C. for 5 min., and the incubation mixture was applied to a column of DE-52. The column was washed with at least 5 column volumes of 10 mM (NH4)HCO3 buffer to remove unbound material, and then GalNAc phosphate was eluted with 500 mM ammonium bicarbonate. Aliquots of the wash and eluent were removed and assayed for their radioactive content by scintillation counting.
The addition of Mg^++ greatly stimulated the activity, and maximum activity occurred at 6 mM Mg^++. Other divalent cations, such as Mn^++ and Co^++ were also somewhat stimulatory, but much less so than Mg^++.

GalNAc kinase [3] = target: T1, GalNAc kinase; experiment: Sugar specificity of GalNAc kinase; format: biochemical, pig; settings: for Radioactivity Incorp.: labeled sugars of same specific activity; for activity as phosphate acceptor: purified kinase; for activity as % of the activity observed with GalNAc: sugar as substrate
Protocol: as §1
A variety of sugars were tested and in each case the specific radioactivity of the labeled sugar was adjusted with unlabeled material so that all were of the same specific activity in order to allow a true comparison of their ability to serve as substrates for the kinase. The amount of radioactivity that bound to DE-52 and was eluted with (NH4)HCO3 was taken as a measure of phosphorylation by the enzyme.

yeast galactokinase = target: T2, yeast galactokinase (Saccharomyces cerevisiae, UniProt P04385); experiment: Sugar specificity of yeast galactokinase; format: biochemical; settings: for Radioactivity Incorporated (Δ cpm): minus 0 ul value
T2 construct: purchased Sigma Chemical Co
T2 sequence (P04385 1-528): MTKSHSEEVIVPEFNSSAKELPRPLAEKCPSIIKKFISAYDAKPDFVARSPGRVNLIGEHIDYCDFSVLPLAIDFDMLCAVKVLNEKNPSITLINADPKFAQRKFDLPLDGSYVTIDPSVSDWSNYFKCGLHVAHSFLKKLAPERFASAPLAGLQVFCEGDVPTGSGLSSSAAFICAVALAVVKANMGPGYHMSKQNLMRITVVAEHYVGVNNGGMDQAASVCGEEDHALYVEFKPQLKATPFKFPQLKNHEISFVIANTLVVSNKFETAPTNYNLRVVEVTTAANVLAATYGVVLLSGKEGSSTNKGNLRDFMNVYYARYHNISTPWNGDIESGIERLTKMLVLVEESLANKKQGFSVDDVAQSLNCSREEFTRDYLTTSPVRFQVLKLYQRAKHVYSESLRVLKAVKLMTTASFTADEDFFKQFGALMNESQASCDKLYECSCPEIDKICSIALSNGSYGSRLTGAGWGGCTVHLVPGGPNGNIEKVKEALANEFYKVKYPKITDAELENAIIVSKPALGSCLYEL
From the text: Galactokinase is an enzyme known to phosphorylate galactose in the one position. […] The specificity of the galactokinase and the GalNAc kinase indicate that they are two different enzymes.

GalNAc kinase [4] = target: T1, GalNAc kinase; experiment: Effect of sulfhydryl reagents on GalNAc kinase activity; format: biochemical, pig; settings: for Activity (cpm in Sugar-P): control 8700
Protocol: as §1
In order to determine whether sulfhydryl groups are necessary for catalytic activity, the effects of various compounds known to react with and inactivate sulfhydryl groups, were examined on the kinase activity.

[5] = tested on: UDP-GlcNAc pyrophosphorylases; settings: UDP-GlcNAc = 100%; cited from earlier work

T1 sequence (A0A287BB25 1-458): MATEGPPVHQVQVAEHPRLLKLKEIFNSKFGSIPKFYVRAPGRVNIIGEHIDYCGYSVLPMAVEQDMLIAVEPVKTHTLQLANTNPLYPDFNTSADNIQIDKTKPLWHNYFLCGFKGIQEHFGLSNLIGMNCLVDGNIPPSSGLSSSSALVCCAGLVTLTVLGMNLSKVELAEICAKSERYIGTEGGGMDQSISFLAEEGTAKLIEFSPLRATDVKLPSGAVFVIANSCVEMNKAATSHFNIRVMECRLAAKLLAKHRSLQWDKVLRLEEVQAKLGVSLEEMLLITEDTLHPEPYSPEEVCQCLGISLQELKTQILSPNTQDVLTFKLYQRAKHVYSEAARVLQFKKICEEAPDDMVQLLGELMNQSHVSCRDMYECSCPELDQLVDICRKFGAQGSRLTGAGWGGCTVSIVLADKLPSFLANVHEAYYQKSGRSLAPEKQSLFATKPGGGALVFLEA

## Nc1ncnc2c1ncn2[C@@H]1O[C@H](COP(=O)(O)OP(=O)(O)O)[C@@H](O)[C@H]1O [ADP]
GalNAc kinase [1]
  activity as phosphate donor: only slightly above background levels
  Radioactivity in Sugar-P: 260
  Specific Activity: 4.0 nmol/mg

## Nc1ccn([C@@H]2O[C@H](COP(=O)(O)OP(=O)(O)O)[C@@H](O)[C@H]2O)c(=O)n1 [CDP]
GalNAc kinase [1]
  activity as phosphate donor: only slightly above background levels
  Radioactivity in Sugar-P: 490
  Specific Activity: 7.6 nmol/mg

## Nc1ccn([C@@H]2O[C@H](COP(=O)(O)OP(=O)(O)OP(=O)(O)O)[C@@H](O)[C@H]2O)c(=O)n1 [CTP]
GalNAc kinase [1]
  activity as phosphate donor: only slightly above background levels
  Radioactivity in Sugar-P: 370
  Specific Activity: 5.8 nmol/mg

## [Ca+2] [Ca^++]
GalNAc kinase [2]
  stimulation of the kinase: inactive

## [Co+2] [Co^++]
GalNAc kinase [2]
  cation concentration for maximum (optimum) activity: 10 mM
  maximum activity relative to optimum concentrations of Mg++: about 50%

## [Cu+2] [Cu^++]
GalNAc kinase [2]
  stimulation of the kinase: inactive

## [Fe+3] [Fe^+++]
GalNAc kinase [2]
  stimulation of the kinase: inactive

## Nc1nc2c(ncn2[C@@H]2O[C@H](COP(=O)(O)OP(=O)(O)O)[C@@H](O)[C@H]2O)c(=O)[nH]1 [GDP]
GalNAc kinase [1]
  Radioactivity in Sugar-P: 10
  Specific Activity: 0.1 nmol/mg

## Nc1nc2c(ncn2[C@@H]2O[C@H](COP(=O)(O)OP(=O)(O)OP(=O)(O)O)[C@@H](O)[C@H]2O)c(=O)[nH]1 [GTP]
GalNAc kinase [1]
  activity as phosphate donor: only slightly above background levels
  Radioactivity in Sugar-P: 300
  Specific Activity: 4.7 nmol/mg

## O=C[C@H](O)[C@@H](O)[C@@H](O)[C@H](O)CO [Gal, galactose]
GalNAc kinase [3]; 4 μl enzyme
  Radioactivity Incorp.: 301 cpm
GalNAc kinase [3]; 8 μl enzyme
  Radioactivity Incorp.: 442 cpm
GalNAc kinase [3]
  activity as phosphate acceptor: inactive
  activity as % of the activity observed with GalNAc: 1%
Yeast galactokinase
  activity as substrate of yeast galactokinase: very active
Yeast galactokinase; 2 ul enzyme
  Radioactivity Incorporated: 6900 cpm
  Radioactivity Incorporated (Δ cpm): 6835 cpm
Yeast galactokinase; 4 ul enzyme
  Radioactivity Incorporated: 7530 cpm
  Radioactivity Incorporated (Δ cpm): 7465 cpm

## N[C@H]1C(O)O[C@H](CO)[C@H](O)[C@@H]1O (stereo partly shown) [GalN, galactosamine]
GalNAc kinase [3]; 4 μl enzyme
  Radioactivity Incorp.: 449 cpm
GalNAc kinase [3]; 8 μl enzyme
  Radioactivity Incorp.: 468 cpm
GalNAc kinase [3]
  activity as phosphate acceptor: inactive
  activity as % of the activity observed with GalNAc: 1%
Yeast galactokinase
  activity as substrate of yeast galactokinase: slight activity
Yeast galactokinase; 2 ul enzyme
  Radioactivity Incorporated: 300 cpm
  Radioactivity Incorporated (Δ cpm): 173 cpm
Yeast galactokinase; 4 ul enzyme
  Radioactivity Incorporated: 440 cpm

## CC(=O)N[C@H]1C(O)O[C@H](CO)[C@H](O)[C@@H]1O (stereo partly shown) [GalNAc, N-acetylgalactosamine]
GalNAc kinase [3]; 4 μl enzyme
  Radioactivity Incorp.: 14,094 cpm
GalNAc kinase [3]; 8 μl enzyme
  Radioactivity Incorp.: 18,448 cpm
Yeast galactokinase
  activity as substrate of yeast galactokinase: no phosphorylation
Yeast galactokinase; 2 ul enzyme
  Radioactivity Incorporated: 37 cpm
  Radioactivity Incorporated (Δ cpm): 0 cpm
Yeast galactokinase; 4 ul enzyme
  Radioactivity Incorporated: 83 cpm
  Radioactivity Incorporated (Δ cpm): 11 cpm

## N[C@H]1C(O)O[C@H](CO)[C@@H](O)[C@@H]1O (stereo partly shown) [GlcN, glucosamine]
GalNAc kinase [3]; 4 μl enzyme
  Radioactivity Incorp.: 189 cpm
GalNAc kinase [3]; 8 μl enzyme
  Radioactivity Incorp.: 206 cpm
GalNAc kinase [3]
  activity as phosphate acceptor: inactive
Yeast galactokinase; 2 ul enzyme
  Radioactivity Incorporated: 135 cpm
  Radioactivity Incorporated (Δ cpm): 0 cpm
Yeast galactokinase; 4 ul enzyme
  Radioactivity Incorporated: 150 cpm
  Radioactivity Incorporated (Δ cpm): 0 cpm

## CC(=O)N[C@H]1C(O)O[C@H](CO)[C@@H](O)[C@@H]1O (stereo partly shown) [GlcNAc, N-acetylglucosamine]
GalNAc kinase [3]; 4 μl enzyme
  Radioactivity Incorp.: 135 cpm
GalNAc kinase [3]; 8 μl enzyme
  Radioactivity Incorp.: 147 cpm
GalNAc kinase [3]
  activity as phosphate acceptor: inactive
Yeast galactokinase; 2 ul enzyme
  Radioactivity Incorporated: 133 cpm
  Radioactivity Incorporated (Δ cpm): 60 cpm
Yeast galactokinase; 4 ul enzyme
  Radioactivity Incorporated: 84 cpm
  Radioactivity Incorporated (Δ cpm): 10 cpm

## NC(=O)CI [IAA, iodoacetamide]
GalNAc kinase [4]
  concentration at which effective as an inhibitor: above 1 mM
GalNAc kinase [4]; inhibitor 0.1 mM
  Activity (cpm in Sugar-P): 8260 cpm
GalNAc kinase [4]; inhibitor 0.5 mM
  Activity (cpm in Sugar-P): 7660 cpm
GalNAc kinase [4]; inhibitor 1 mM
  Activity (cpm in Sugar-P): 5490 cpm
GalNAc kinase [4]; inhibitor 2 mM
  Activity (cpm in Sugar-P): 2170 cpm
GalNAc kinase [4]; inhibitor 4 mM
  Activity (cpm in Sugar-P): 658 cpm

## O=c1[nH]cnc2c1ncn2[C@@H]1O[C@H](COP(=O)(O)OP(=O)(O)OP(=O)(O)O)[C@@H](O)[C@H]1O [ITP]
GalNAc kinase [1]
  activity as phosphate donor: slight activity; also recorded: some activity
  Radioactivity in Sugar-P: 900
  Specific Activity: 14.1 nmol/mg

## CC(=O)N[C@@H]1C(O)O[C@H](CO)[C@@H](O)[C@@H]1O (stereo partly shown) [ManNAc, N-acetylmannosamine]
GalNAc kinase [3]; 4 μl enzyme
  Radioactivity Incorp.: 475 cpm
GalNAc kinase [3]; 8 μl enzyme
  Radioactivity Incorp.: 89 cpm
GalNAc kinase [3]
  activity as phosphate acceptor: inactive

## [Mn+2] [Mn^++]
GalNAc kinase [2]
  cation concentration for maximum (optimum) activity: 2 to 8 mM
  maximum activity relative to optimum concentrations of Mg++: about 50%

## [Mo+2] [Mo^++]
GalNAc kinase [2]
  stimulation of the kinase: inactive

## CCN1C(=O)C=CC1=O [NEM, N-ethylmaleimide]
GalNAc kinase [4]; 0.5 mM, read-out: inhibition of enzymatic activity
  inhibition at 500 µM: 90%
GalNAc kinase [4]; inhibitor 0.1 mM
  Activity (cpm in Sugar-P): 9050 cpm
GalNAc kinase [4]; inhibitor 0.5 mM
  Activity (cpm in Sugar-P): 805 cpm
GalNAc kinase [4]; inhibitor 1 mM
  Activity (cpm in Sugar-P): 40 cpm
GalNAc kinase [4]; inhibitor 2 mM
  Activity (cpm in Sugar-P): 0 cpm
GalNAc kinase [4]; inhibitor 4 mM
  Activity (cpm in Sugar-P): 0 cpm

## [Ni+2] [Ni^++]
GalNAc kinase [2]
  stimulation of the kinase: inactive

## CC(=O)N[C@H]1[C@@H](OP(=O)(O)OP(=O)(O)OC[C@H]2O[C@@H](n3ccc(=O)[nH]c3=O)[C@H](O)[C@@H]2O)O[C@H](CO)[C@@H](O)[C@@H]1O [UDP-GlcNAc]
[5]
  activity towards substrate: 100%

## O=c1ccn([C@@H]2O[C@H](COP(=O)(O)OP(=O)(O)O)[C@@H](O)[C@H]2O)c(=O)[nH]1 [UDP]
GalNAc kinase [1]
  Radioactivity in Sugar-P: 30
  Specific Activity: 0.5 nmol/mg

## O=c1ccn([C@@H]2O[C@H](COP(=O)(O)OP(=O)(O)OP(=O)(O)O)[C@@H](O)[C@H]2O)c(=O)[nH]1 [UTP]
GalNAc kinase [1]
  Radioactivity in Sugar-P: 180
  Specific Activity: 2.8 nmol/mg

## [Zn+2] [Zn^++]
GalNAc kinase [2]
  stimulation of the kinase: inactive

## CC(=O)OP(=O)(O)O [acetylphosphate]
GalNAc kinase [1]
  activity as phosphate donor: No activity

## O=C(O)c1cc[c]([Hg][Cl])cc1 [pCMB, p-chloromercuribenzoate]
GalNAc kinase [4]; 0.02 mM
  inhibition of enzymatic activity: over 70%
GalNAc kinase [4]; 0.04 mM
  inhibition of enzymatic activity: complete inhibition
GalNAc kinase [4]; inhibitor 0.02 mM
  Activity (cpm in Sugar-P): 2660 cpm
GalNAc kinase [4]; inhibitor 0.04 mM
  Activity (cpm in Sugar-P): 250 cpm
GalNAc kinase [4]; inhibitor 0.06 mM
  Activity (cpm in Sugar-P): 30 cpm
GalNAc kinase [4]; inhibitor 0.1 mM
  Activity (cpm in Sugar-P): 20 cpm
GalNAc kinase [4]; inhibitor 0.25 mM
  Activity (cpm in Sugar-P): 50 cpm

## C=C(OP(=O)(O)O)C(=O)O [phosphoenolpyruvate]
GalNAc kinase [1]
  activity as phosphate donor: No activity
